“Also recorded” adds a separate entry of the source.
Test: Phase 1/2 clinical study: safety, treatment-emergent adverse events
Assay type: in vivo
Method: This study includes monotherapy as well as combination treatment parts. The monotherapy part includes Phase 1 dose escalation and dose expansion as well as Phase 2. […] Phase 1 dose escalation will proceed prior to start of Phase 1b or Phase 2. Once a recommended Phase 2 dose (RP2D) is identified in Phase 1, enrollment can commence to the Phase 1b combination therapies and Phase 2 monotherapy cohorts.
Dose escalation will follow a 3+3 design starting with a 25 mg QD dose (followed by 50 mg QD (dose level cohort 2), 100 mg QD (dose level cohort 3), 150 mg QD (dose level cohort 4), 200 mg QD (dose level cohort 5), 250 mg QD (dose level cohort 6), and 300 mg QD (dose level cohort 7)). Cycle length will be 28 days.
Any toxicity, regardless of the NCI CTCAE v.5 grade, resulting in discontinuation, does reduction or considered a DLT unless the SRC determines the toxicity if clearly unrelated to study drug (i.e., related to the patient's underlying disease other medical condition or concomitant medications).

## COc1ccc(F)cc1C(=O)NCc1ccc(-c2nn([C@@H](C)C(F)(F)F)c(N)c2C(N)=O)cc1 [BTK-I, (S)-5-amino-3-(4-((5-fluoro-2-methoxybenzamido)methyl)phenyl)-1-(1,1,1-trifluoropropane-2-yl)-1H-pyrazole-4-carboxamide]
25 mg QD (N = 5)
  Abdominal pain (TEAE): 1 (20.0) n(%)
  Anaemia (TEAE): 0 (0.0) n(%)
  Back pain (TEAE): 0 (0.0) n(%)
  Constipation (TEAE): 0 (0.0^ n(%)
  Contusion (TEAE): 0 (0.0) n(%)
  Cough (TEAE): 3 (60.0) n(%)
  Diarrhoea (TEAE): 3 (60.0) n(%)
  Dizziness (TEAE): 2 (40.0) n(%)
  Dyspnoea (TEAE): 0 (0.0) n(%)
  Fatigue (TEAE): 3 (60.0) n(%)
  Headache (TEAE): 2 (40.0) n(%)
  Nausea (TEAE): 2 (40.0) n(%)
  Neutropenia (TEAE): 0 (0.0) n(%)
  Neutrophil count decreased (TEAE): 1 (20.0) n(%)
  Oedema peripheral (TEAE): 1 (20.0) n(%)
  Rash maculopapular (TEAE): 0 (0.0) n(%)
  Subjects with Any TEAEs: 5 (100.0) n(%)
  Upper respiratory tract infection (TEAE): 1 (20.0) n(%)
25 mg to 300 mg QD
  dose limiting toxicities: no dose limiting toxicities or dose reductions; also recorded: DLTS have not been observed
50 mg QD (N = 6)
  Abdominal pain (TEAE): 0 (0.0) n(%)
  Anaemia (TEAE): 0 (0.0) n(%)
  Back pain (TEAE): 0 (0.0) n(%)
  Constipation (TEAE): 0 (0.0) n(%)
  Contusion (TEAE): 2 (33.3) n(%)
  Cough (TEAE): 2 (33.3) n(%)
  Diarrhoea (TEAE): 1 (16.7) n(%)
  Dizziness (TEAE): 0 (0.0) n(%)
  Dyspnoea (TEAE): 0 (0.0) n(%)
  Fatigue (TEAE): 3 (50.0) n(%)
  Headache (TEAE): 1 (16.7) n(%)
  Nausea (TEAE): 2 (33.3) n(%)
  Neutropenia (TEAE): 1 (16.7) n(%)
  Neutrophil count decreased (TEAE): 0 (0.0) n(%)
  Oedema peripheral (TEAE): 1 (16.7) n(%)
  Pyrexia (TEAE): 0 (0.0) n(%)
  Rash maculopapular (TEAE): 0 (0.0) n(%)
  Subjects with Any TEAEs: 6 (100.0) n(%)
  Upper respiratory tract infection (TEAE): 3 (50.0) n(%)
100 mg QD (N = 9)
  Abdominal pain (TEAE): 2 (2.2) n(%)
  Anaemia (TEAE): 2 (22.2) n(%)
  Back pain (TEAE): 0 (0.0) n(%)
  Constipation (TEAE): 0 (0.0) n(%)
  Contusion (TEAE): 0 (0.0) n(%)
  Cough (TEAE): 0 (0.0) n(%)
  Diarrhoea (TEAE): 3 (33.3) n(%)
  Dizziness (TEAE): 1 (11.1) n(%)
  Dyspnoea (TEAE): 2 (22.2) n(%)
  Fatigue (TEAE): 2 (22.2) n(%)
  Headache (TEAE): 1 (11.1) n(%)
  Nausea (TEAE): 1 (11.1) n(%)
  Neutropenia (TEAE): 0 (0.0) n(%)
  Neutrophil count decreased (TEAE): 0 (0.0) n(%)
  Oedema peripheral (TEAE): 0 (0.0) n(%)
  Pyrexia (TEAE): 1 (11.1) n(%)
  Rash maculopapular (TEAE): 1 (11.1) n(%)
  Subjects with Any TEAEs: 8 (88.9) n(%)
  Upper respiratory tract infection (TEAE): 1 (11.1) n(%)
150 mg QD (N = 20)
  Abdominal pain (TEAE): 1 (5.0) n(%)
  Anaemia (TEAE): 3 (15.0) n(%)
  Back pain (TEAE): 5 (25.0) n(%)
  Constipation (TEAE): 5 (25.0) n(%)
  Contusion (TEAE): 3 (15.0) n(%)
  Cough (TEAE): 3 (15.0) n(%)
  Diarrhoea (TEAE): 5 (25.0) n(%)
  Dizziness (TEAE): 2 (10.0) n(%)
  Dyspnoea (TEAE): 2 (10.0) n(%)
  Fatigue (TEAE): 3 (15.0) n(%)
  Headache (TEAE): 4 (20.0) n(%)
  Nausea (TEAE): 1 (5.0) n(%)
  Neutropenia (TEAE): 4 (20.0) n(%)
  Neutrophil count decreased (TEAE): 3 (15.0) n(%)
  Oedema peripheral (TEAE): 3 (15.0) n(%)
  Pyrexia (TEAE): 1 (5.0) n(%)
  Rash maculopapular (TEAE): 2 (10.0) n(%)
  Subjects with Any TEAEs: 20 (100.0) n(%)
  Upper respiratory tract infection (TEAE): 7 (35.0) n(%)
200 mg QD (N = 238)
  Abdominal pain (TEAE): 14 (5.9) n(%)
  Anaemia (TEAE): 16 (6.7) n(%)
  Back pain (TEAE): 14 (5.9) n(%)
  Constipation (TEAE): 14 (5.9) n(%)
  Contusion (TEAE): 28 (11.8) n(%)
  Cough (TEAE): 15 (6.3) n(%)
  Diarrhoea (TEAE): 33 (13.9) n(%)
  Dizziness (TEAE): 10 (4.2) n(%)
  Dyspnoea (TEAE): 16 (6.7) n(%)
  Fatigue (TEAE): 39 (16.4) n(%)
  Headache (TEAE): 14 (5.9) n(%)
  Nausea (TEAE): 16 (6.7) n(%)
  Neutropenia (TEAE): 15 (6.3) n(%)
  Neutrophil count decreased (TEAE): 10 (4.2) n(%)
  Oedema peripheral (TEAE): 14 (5.9) n(%)
  Pyrexia (TEAE): 17 (7.1) n(%)
  Rash maculopapular (TEAE): 12 (5.0) n(%)
  Upper respiratory tract infection (TEAE): 3 (1.3) n(%)
250 mg QD (N = 25)
  Abdominal pain (TEAE): 0 (0.0) n(%)
  Anaemia (TEAE): 2 (8.0) n(%)
  Back pain (TEAE): 3 (2.0) n(%)
  Constipation (TEAE): 3 (12.0) n(%)
  Contusion (TEAE): 5 (20.0) n(%)
  Cough (TEAE): 3 (12.0) n(%)
  Diarrhoea (TEAE): 5 (20.0) n(%)
  Dizziness (TEAE): 1 (4.0) n(%)
  Dyspnoea (TEAE): 2 (8.0) n(%)
  Fatigue (TEAE): 10 (40.0) n(%)
  Headache (TEAE): 3 (12.0) n(%)
  Nausea (TEAE): 5 (20.0) n(%)
  Neutropenia (TEAE): 1 (4.0) n(%)
  Oedema peripheral (TEAE): 2 (8.0) n(%)
  Pyrexia (TEAE): 2 (8.0) n(%)
  Rash maculopapular (TEAE): 2 (8.0) n(%)
  Subjects with Any TEAEs: 25 (100.0) n(%)
  Upper respiratory tract infection (TEAE): 6 (24.0) n(%)
Overall (N = 323)
  Abdominal pain (TEAE): 20 (6.2) n (%)
  Anaemia (TEAE): 24 (7.4) n (%)
  Back pain (TEAE): 25 (7.7) n (%)
  Constipation (TEAE): 25 (7.7) n (%)
  Contusion (TEAE): 42 (13.0) n (%)
  Cough (TEAE): 29 (9.0) n (%)
  Diarrhoea (TEAE): 55 (17.0) n (%)
  Dizziness (TEAE): 18 (5.6) n (%)
  Dyspnoea (TEAE): 26 (8.0) n (%)
  Fatigue (TEAE): 65 (20.1) n (%)
  Headache (TEAE): 29 (9.0) n (%)
  Nausea (TEAE): 30 (9.3) n (%)
  Neutropenia (TEAE): 24 (7.4) n (%)
  Neutrophil count decreased (TEAE): 22 (6.8) n (%)
  Oedema peripheral (TEAE): 22 (6.8) n (%)
  Pyrexia (TEAE): 23 (7.1) n (%)
  Rash maculopapular (TEAE): 20 (6.2) n (%)
  Subjects with Any TEAEs: 264 (81.7) n (%)
  Upper respiratory tract infection (TEAE): 23 (7.1) n (%)
human, in vivo
  rates of atrial arrhythmias and major bleeding: low rates
  tolerability in patients: appeared to be well tolerated
n=42 of 323 patients
  contusion, treatment emergent adverse event regardless of attribution or grade: 13%
n=55 of 323 patients
  diarrhea, treatment emergent adverse event regardless of attribution or grade: 17%
n=65 of 323 patients
  fatigue, treatment emergent adverse event regardless of attribution or grade: 20%
Up to 300 mg QD
  maximum tolerated dose (MTD): lack of an MTD

From patent publication US12551463B2, “Dosing of a Bruton's tyrosine kinase inhibitor” (Loxo Oncology, Inc., priority 2019, dated 2026)
